{"source": "patent US20240398829A1", "about": "“A COBALT-[…] AMINO ACID COMPLEX AND ITS USE FOR TREATING CANCER” (AMELIO BIOTECH CO., LTD., priority 2021, published 2024)", "key": {"[1]": {"tested_on": "zebrafish liver", "test": "Hepatoxicity assay in Tg(fabp10a:EGFP-mCherry) embryos", "details": "10 μM, embryos treated from 3 dpf", "experimental": "About 3 dpf, 50 embryos were distributed into 10 ml chemical solution/well (chemical/E3 solution) in 6-well plates until 5 dpf and new chemical solution was replaced every day. At 5 dpf, embryos were anesthetized with tricaine (0.016%) and the images of 8 to 10 embryos randomly per well were taken by ZEISS AxioCam MRc. There are three different images which one with auto exposure-time for the clearest view, one with fixed exposure-time to capture RFP (red fluorescent protein) intensity below saturation for intensity measurement and comparison, and the last one with sufficient exposure-time to show the whole liver region for size measurement. Image J software was then used to quantify intensity of RFP and liver size. Average RFP intensity in the liver was calculated and compared within the same group of lateral view fry under the same magnification and fixed exposure-time.\nImages were analyzed by Image J software."}, "[2]": {"tested_on": "NCI-H226", "test": "Cell proliferation assay II (MTS), NCI-H226", "assay_type": "cell-based, human", "details": "NCI-H226, 72 h, mean ± SD", "procedure": "(§1) Human lung cancer cell line NCI-H226 was purchased from the American type culture collection (CRL-5826). NCI-H226 was grown in RPMI supplemented with 10% FBS in a humidified atmosphere containing 5% CO2 at 37° C. Human melanoma cell line A375, human pharynx squamous cell carcinoma FaDu, human cervical epithelioid carcinoma HeLa and human chronic myelogenous leukemia K-562 were purchased from Bioresource Collection and Research Center (BCRC), Hsinchu 300, Taiwan. A375 cells were grown in DMEM supplemented with 10% FBS in a humidified atmosphere 5% CO2 at 37° C. FaDu cells were grown in DMEM supplemented with 10% FBS in a humidified atmosphere 5% CO2 at 37° C. HeLa cell were grown in DMEM supplemented with 10% FBS in a humidified atmosphere 5% CO2 at 37° C. […]\n(§2) MTS/PMS solution was freshly prepared and added (20 μl per well) into each well of 96-well cultured plate. The assay plate was incubated for 3 hours at 37° C., 5% CO2, under humidified atmosphere, and measured the absorbance at 490 nm using Multiskan™ GO Microplate Spectrophotometer (Thermo Fisher Scientific).\n(§3) Corrected absorbance values were obtained by subtracting the average 490 nm absorbance of the negative control wells (medium only, no cell, as background control) from all other absorbance values. Percentage inhibition of cell growth for compound treatment was calculated using this formula: […]"}, "[3]": {"tested_on": "K-562", "test": "Cell proliferation assay II (MTS), K-562", "assay_type": "cell-based, human", "details": "K-562, 72 h, mean ± SD", "procedure": "as §1, §2, §3"}, "[4]": {"tested_on": "Huh7 cells", "test": "Cell proliferation assay I (PrestoBlue), Huh7", "assay_type": "cell-based, human", "details": "72 h; for Huh7 cell survival (%): vs control without drug", "procedure": "(§4) U-87 MG cells (a human primary glioblastoma cell line) were cultured in MEM medium (Gibco, New York, NY, USA). A375 cells (a human melanoma cell line) and Huh7 cells (a human hepatocellular carcinoma (HCC) cell line) were cultured in DMEM medium (HyClone, Logan, UT, USA). The culture media were supplemented with 10% heat-inactivated fetal bovine serum (FBS), 1% penicillin/streptomycin and 1% […] (HyClone, Logan, UT, USA). Cells were seeded in 96-well plates at a density of 2000 cells/well. Then, cells were transferred to 37° C. incubator. […] At the end of incubation, the PrestoBlue™ Cell Viability Reagent (Invitrogen, Eugene, OR, USA) was distributed to cells. The plates were incubated for 90 min at 37° C. in a humidified, 5% CO2 atmosphere and the fluorescence was then recorded at Ex/Em: 560 nm/590 nm. Triplicate experiments were performed."}, "[5]": {"tested_on": "U-87 MG cells", "test": "Cell proliferation assay I (PrestoBlue), U-87 MG", "assay_type": "cell-based, human", "details": "72 h; for U-87 MG cell survival (%): vs control without drug", "procedure": "as §4"}, "[6]": {"tested_on": "Hep3B hepatoma cells", "test": "Xenotransplantation assay of cell proliferation in zebrafish embryos", "assay_type": "in vivo, human", "details": "two days, zebrafish embryo xenotransplant"}, "[7]": {"tested_on": "tert transgenic zebrafish", "test": "H&E staining of liver cells of tert transgenic zebrafish", "assay_type": "in vivo, zebrafish (Danio rerio)", "details": "15 dpf", "procedure": "(§5) 50 zebrafish larva were placed in a fish tank with 800 ml of system water, the water were refreshed every day at 4 pm. From day 5 to day 15, AB(WT) and tert transgenic zebrafish were fed with normal larva food, plus 20 ml of Paramecium, and there must be 2 hours between meals, four meals a day. The last meal must be fed after 1 hour before the water changed. […] The fish were fasting for one days before collecting the samples for RNA extraction and hematoxylin-eosin (H&E) staining.\nAfter 1 month of RO injection, the fish was sacrificed, and the liver was taken out and divided into two parts for RNA isolation and paraffin section. The liver tissues were frozen in liquid nitrogen immediately after sectioning and stored at −80° C. for later RNA isolation. For histochemistry analysis, liver tissues were fixed in a 10% formalin solution (Sigma-Aldrich Inc., St. Louis, MO, USA). The fixed tissue was embedded in paraffin, and sectioned at 5-μm thickness mounted on poly-L-lysine coated slides, and the sections were stained with hematoxylin and eosin (H&E stain), which this part was performed by the Pathology core facility.\nH&E staining is mainly to observe the states of mitotic figures, […] cells, and macronucleated cells that represent hepatocyte undergoes carcinogenesis."}, "[8]": {"tested_on": "A375 cells", "test": "Cell proliferation assay I (PrestoBlue), A375", "assay_type": "cell-based, human", "details": "72 h; for A375 cell survival (%): vs control without drug", "procedure": "as §4"}, "[9]": {"tested_on": "HeLa", "test": "Cell proliferation assay II (MTS), HeLa", "assay_type": "cell-based, human", "details": "72 h, mean ± SD", "procedure": "as §1, §2, §3"}, "[10]": {"tested_on": "ccne1, cdk1, cdk2, myca, mycb, ccnd1", "test": "qPCR of cell proliferation markers and beta-catenin downstream target genes in tert transgenic zebrafish", "assay_type": "in vivo, zebrafish (Danio rerio)", "details": "0.5×(50 μM), 15 dpf, vs untreated", "procedure": "as §5\nTotal RNA was isolated by NucleoSpin® RNA kit ([…]-NAGEL, USA). […]\nThe resulting first-strand cDNA was used as a template for […] PCR in triplicate by using the SYBR Green Q-PCR Master Mix Kit (Applied Biosystems) using an ABI PRISM 7900 System. After normalization to internal control actin, the expression ratio between the experimental and control groups was calculated using the comparative Ct method. The relative expression ratio (fold change) was calculated based on ΔΔCt, ΔΔCt=(Cttarget−Ctactin)treatment−(Cttarget−Ctactin)control, and fold change=2^−ΔΔ^Ct. […] At least three independent samples were used for Q-PCR, and the standard error was calculated and incorporated into the presented data as […]±standard error. Differences among variables were assessed by a two-tailed Student's t test. […]"}, "[11]": {"tested_on": "FaDu", "test": "Cell proliferation assay II (MTS), FaDu", "assay_type": "cell-based, human", "details": "72 h, mean ± SD", "procedure": "as §1, §2, §3"}, "[12]": {"tested_on": "A375", "test": "Cell proliferation assay II (MTS), A375", "assay_type": "cell-based, human", "details": "A375, 72 h, mean ± SD", "procedure": "as §1, §2, §3"}, "[13]": {"tested_on": "U87", "test": "Cell proliferation assay II (MTS), U87", "assay_type": "cell-based, human", "details": "U87, 72 h, mean ± SD", "procedure": "as §1, §2, §3"}}, "note": "“And” between values parts separate entries of the source, which are not always exact repeats. Equal values may be shown once.", "data": [{"molecule": "CNC(=O)c1cc(Oc2ccc(NC(=O)Nc3ccc(Cl)c(C(F)(F)F)c3)cc2)ccn1", "note": "[Sorafenib]", "values": [{"measurement": "liver size vs DMSO treated control", "setting": "[1]", "result": "significantly reduce liver size"}]}, {"molecule": "cobalt-containing glutamic acid (COGA) complex", "values": [{"measurement": "IC50", "setting": "[2]", "result": "45 µM and 44.5 µM"}, {"measurement": "IC50", "setting": "[3]", "result": "54.5 ± 4.4", "unit": "µM"}, {"measurement": "Huh7 cell survival (%)", "setting": "[4]; 5 nM", "result": "102% and 107% and 100%"}, {"measurement": "Huh7 cell survival (%)", "setting": "[4]; 14 nM", "result": "88% and 92% and 84%"}, {"measurement": "Huh7 cell survival (%)", "setting": "[4]; 41 nM", "result": "78% and 80% and 72%"}, {"measurement": "Huh7 cell survival (%)", "setting": "[4]; 123 nM", "result": "73% and 77% and 71%"}, {"measurement": "Huh7 cell survival (%)", "setting": "[4]; 370 nM", "result": "74% and 75% and 69%"}, {"measurement": "Huh7 cell survival (%)", "setting": "[4]; 1111 nM", "result": "82% and 79% and 73%"}, {"measurement": "Huh7 cell survival (%)", "setting": "[4]; 3333 nM", "result": "80% and 82% and 75%"}, {"measurement": "Huh7 cell survival (%)", "setting": "[4]; 10000 nM", "result": "89% and 92% and 82%"}, {"measurement": "IC50", "setting": "[4]; Huh7 cells", "result": "0.287 ± 0.0618", "unit": "µM"}, {"measurement": "U-87 MG cell survival (%)", "setting": "[5]; 5 nM", "result": "100% and 105% and 103%"}, {"measurement": "U-87 MG cell survival (%)", "setting": "[5]; 14 nM", "result": "95% and 97%"}, {"measurement": "U-87 MG cell survival (%)", "setting": "[5]; 41 nM", "result": "89% and 93%"}, {"measurement": "U-87 MG cell survival (%)", "setting": "[5]; 123 nM", "result": 89, "unit": "%"}, {"measurement": "U-87 MG cell survival (%)", "setting": "[5]; 370 nM", "result": "87% and 91% and 85%"}, {"measurement": "U-87 MG cell survival (%)", "setting": "[5]; 1111 nM", "result": "87% and 90% and 84%"}, {"measurement": "U-87 MG cell survival (%)", "setting": "[5]; 3333 nM", "result": "87% and 89% and 84%"}, {"measurement": "U-87 MG cell survival (%)", "setting": "[5]; 10000 nM", "result": "89% and 90% and 88%"}, {"measurement": "IC50", "setting": "[5]; U-87 MG cells", "result": "> 10", "unit": "µM"}, {"measurement": "hepatoma cell proliferation compared to the DMSO treatment", "setting": "[6]; 0.5×(50 μM)", "result": "significantly reduced"}, {"measurement": "hepatoma cell proliferation compared to the DMSO treatment", "setting": "[6]; 1×(100 μM)", "result": "significantly reduced"}, {"measurement": "number of mitotic figures, trinucleated cells, and macronucleated cells", "setting": "[7]", "result": "significantly reduced"}, {"measurement": "A375 cell survival (%)", "setting": "[8]; 5 nM", "result": "110% and 104% and 105%"}, {"measurement": "A375 cell survival (%)", "setting": "[8]; 14 nM", "result": "89% and 87% and 85%"}, {"measurement": "A375 cell survival (%)", "setting": "[8]; 41 nM", "result": "74% and 71% and 68%"}, {"measurement": "A375 cell survival (%)", "setting": "[8]; 123 nM", "result": "72% and 69% and 67%"}, {"measurement": "A375 cell survival (%)", "setting": "[8]; 370 nM", "result": "69% and 68% and 62%"}, {"measurement": "A375 cell survival (%)", "setting": "[8]; 1111 nM", "result": "70% and 71% and 67%"}, {"measurement": "A375 cell survival (%)", "setting": "[8]; 3333 nM", "result": "77% and 76% and 72%"}, {"measurement": "A375 cell survival (%)", "setting": "[8]; 10000 nM", "result": "89% and 88% and 84%"}, {"measurement": "IC50", "setting": "[8]; A375 cells", "result": "0.0687 ± 0.0158", "unit": "µM"}, {"measurement": "IC50", "setting": "[9]", "result": "73.7 ± 19", "unit": "µM"}, {"measurement": "expression of cell proliferation markers (ccne1, cdk1, cdk2) and beta-catenin downstream target genes (myca, mycb, ccnd1)", "setting": "[10]", "result": "significantly reduced"}, {"measurement": "IC50", "setting": "[11]", "result": "74.6 ± 63", "unit": "µM"}, {"measurement": "IC50", "setting": "[12]", "result": "102 ± 2", "unit": "µM"}, {"measurement": "IC50", "setting": "[13]", "result": 42, "unit": "µM"}]}]}
